# Measurements taken from ChEMBL document CHEMBL1151969, “Melanin synthesis inhibitors from Lespedeza floribunda” (J Nat Prod, 2009).
# How the values were obtained:
# [1] = Cytotoxicity against NHEM cells assessed as cell viability after 72 hrs by WST-8 assay; type: cell-based; settings: human
# [2] = Inhibition of melanin synthesis in NHEM cells assessed as [14C]thiouracil incorporation after 72 hrs by liquid scintillation counting; type: functional, cell-based, Homo sapiens
smiles,measurement,setting,value
CC(C)=CCc1cc2c(c(CC=C(C)C)c1O)O[C@H](c1ccc(O)cc1)CC2=O,Activity,[1],Non-toxic
same,IC50,"[2]; Homo sapiens, NHEM, 72 h",2.52 µM
CC(C)=CCc1c(O)c(CC=C(C)C)c2c(c1O)C(=O)C[C@@H](c1cc3c(cc1O)OC(C)(C)C=C3)O2 (stereo in doubt) [EUCHRENONE A3],IC50,[2]; nhem,1.02 µM
CC(C)=CCc1c(O)c(CC=C(C)C)c2c(c1O)C(=O)C[C@@H](c1cc3c(cc1O)OC(C)(C)C=C3)O2 (stereo in doubt; 45) [EUCHRENONE A3],Activity,[1],Non-toxic
same,IC50,"[2]; Homo sapiens, NHEM, 72 h",1.51 µM
CC(C)=CCc1cc([C@@H]2CC(=O)c3c(O)c(CC=C(C)C)c(O)c(CC=C(C)C)c3O2)ccc1O [AMORILIN],IC50,"[2]; Homo sapiens, NHEM, 72 h",1.21 µM
CC(C)=CCc1cc([C@@H]2CC(=O)c3c(O)c(CC=C(C)C)c(O)c(CC=C(C)C)c3O2)cc(O)c1O [AMORISIN],IC50,"[2]; Homo sapiens, NHEM, 72 h",3.6 µM
OC[C@H]1O[C@@H](Oc2ccc(O)cc2)[C@H](O)[C@@H](O)[C@@H]1O [ARBUTIN],IC50,"[2]; Homo sapiens, NHEM, 72 h",103 µM
CC(C)=CCc1cc2c(cc1O)O[C@H](c1ccc(O)cc1)CC2=O [BAVACHIN],Activity,[1],Non-toxic
same,IC50,"[2]; Homo sapiens, NHEM, 72 h",2.7 µM
CC(C)=CCc1c(O)c2c(c3c1OC(C)(C)C=C3)O[C@H](c1ccc(O)cc1)CC2=O [CAJAFLAVANONE],Activity,[1],Non-toxic
same,IC50,"[2]; Homo sapiens, NHEM, 72 h",8.41 µM
CC(C)=CCc1c(O)ccc2c1O[C@H]1c3ccc(O)c(CC=C(C)C)c3OC[C@@H]21 [ERYBRAEDIN A],Activity,[1],Non-toxic
same,IC50,"[2]; Homo sapiens, NHEM, 72 h",3.84 µM
CC(C)=CCc1cc2c(cc1O)OC[C@H]1c3ccc(O)c(CC=C(C)C)c3O[C@@H]21 [ERYBRAEDIN C],Activity,[1],Non-toxic
same,IC50,"[2]; Homo sapiens, NHEM, 72 h",2 µM
CC(C)=CCc1c(O)ccc2c1OC[C@H]1c3ccc4c(c3O[C@@H]21)C=CC(C)(C)O4 [ERYBREADIN B],Activity,[1],Non-toxic
same,IC50,"[2]; Homo sapiens, NHEM, 72 h",2.93 µM
CC(C)=CCc1cc2c(cc1O)OC[C@H]1c3ccc4c(c3O[C@@H]21)C=CC(C)(C)O4 [FOLITENOL],Activity,[1],Non-toxic
same,IC50,"[2]; Homo sapiens, NHEM, 72 h",1.84 µM
O=c1c(-c2ccc(O)cc2)coc2cc(O)cc(O)c12 [GENISTEIN],Activity,[1],Non-toxic
same,IC50,"[2]; Homo sapiens, NHEM, 72 h",29.2 µM
Oc1ccc(O)cc1 [HYDROQUINONE],IC50,"[2]; Homo sapiens, NHEM, 72 h",2.2 µM
CC(C)=CCc1cc([C@@H]2CC(=O)c3c(O)c(CC=C(C)C)c(O)c(CC=C(C)C)c3O2)c(O)cc1O [LESPEDEZAFLAVANONE H],IC50,"[2]; Homo sapiens, NHEM, 72 h",7.8 µM
COc1ccc([C@@H]2CC(=O)c3cc(CC=C(C)C)c(O)c(CC=C(C)C)c3O2)cc1 [LESPEFLORIN A1],Activity,[1],Non-toxic
same,IC50,"[2]; Homo sapiens, NHEM, 72 h",3.96 µM
COc1ccc([C@@H]2CC(=O)c3ccc(O)c(CC=C(C)C)c3O2)cc1 [LESPEFLORIN A2],Activity,[1],Non-toxic
same,IC50,"[2]; Homo sapiens, NHEM, 72 h",3.86 µM
CC(C)=CCc1cc2c(c(CC=C(C)C)c1O)O[C@H](c1ccc3c(c1)C=CC(C)(C)O3)CC2=O [LESPEFLORIN A3],Activity,[1],Non-toxic
same,IC50,"[2]; Homo sapiens, NHEM, 72 h",1.5 µM
COc1cc(O)ccc1[C@@H]1CC(=O)c2c(O)cc3c(c2O1)C=CC(C)(C)O3 [LESPEFLORIN A4],Activity,[1],Non-toxic
same,IC50,"[2]; Homo sapiens, NHEM, 72 h",4.93 µM
CC(C)=CCc1cc([C@H]2Oc3cc(O)c(CC=C(C)C)cc3C(=O)[C@@H]2O)ccc1O [LESPEFLORIN B1],Activity,[1],Non-toxic
same,IC50,"[2]; Homo sapiens, NHEM, 72 h",2.87 µM
CC(C)=CCc1cc2c(c(CC=C(C)C)c1O)O[C@H](c1ccc(O)cc1)[C@@H](O)C2=O [LESPEFLORIN B2],Activity,[1],Non-toxic
same,IC50,"[2]; Homo sapiens, NHEM, 72 h",2.19 µM
CC(C)=CCc1cc([C@H]2Oc3c(cc(CC=C(C)C)c(O)c3CC=C(C)C)C(=O)[C@@H]2O)ccc1O [LESPEFLORIN B3],Activity,[1],Non-toxic
same,IC50,"[2]; Homo sapiens, NHEM, 72 h",0.68 µM
CC(C)=CCc1cc([C@H]2Oc3c(CC=C(C)C)c(O)c(CC=C(C)C)c(O)c3C(=O)[C@@H]2O)ccc1O [LESPEFLORIN B4],Activity,[1],Non-toxic
same,IC50,"[2]; Homo sapiens, NHEM, 72 h",1.23 µM
CC(C)=CCc1cc(C(=O)[C@@H](O)Cc2ccc(O)cc2)c(O)cc1O [LESPEFLORIN C1],Activity,[1],Non-toxic
same,IC50,"[2]; Homo sapiens, NHEM, 72 h",> 146 µM
COc1ccc(C[C@H](O)C(=O)c2cc(CC=C(C)C)c(O)cc2O)cc1 [LESPEFLORIN C2],Activity,[1],Non-toxic
same,IC50,"[2]; Homo sapiens, NHEM, 72 h",28.1 µM
COc1cc(O)c(CC=C(C)C)cc1C(=O)[C@@H](O)Cc1ccc(O)cc1 [LESPEFLORIN C3],Activity,[1],Non-toxic
same,IC50,"[2]; Homo sapiens, NHEM, 72 h",1.68 µM
COc1ccc(C[C@H](O)C(=O)c2cc(CC=C(C)C)c(O)cc2OC)cc1 [LESPEFLORIN C4],Activity,[1],Non-toxic
same,IC50,"[2]; Homo sapiens, NHEM, 72 h",> 135 µM
CC(C)=CCc1cc(C(=O)[C@@H](O)Cc2ccc(O)cc2)c(O)c(C)c1O [LESPEFLORIN C5],Activity,[1],Non-toxic
same,IC50,"[2]; Homo sapiens, NHEM, 72 h",> 135 µM
CC(C)=CCc1cc(C(=O)[C@@H](O)Cc2ccc(O)cc2)c(O)c(CC=C(C)C)c1O [LESPEFLORIN C6],Activity,[1],Non-toxic
same,IC50,"[2]; Homo sapiens, NHEM, 72 h",22 µM
COc1cc2c(cc1C(=O)[C@@H](O)Cc1ccc(O)cc1)C=CC(C)(C)O2 [LESPEFLORIN C7],Activity,[1],Non-toxic
same,IC50,"[2]; Homo sapiens, NHEM, 72 h",3.78 µM
COc1c([C@@H]2COc3c(ccc(O)c3CC=C(C)C)C2=O)ccc(O)c1CC=C(C)C [LESPEFLORIN D1],Activity,[1],Non-toxic
same,IC50,"[2]; Homo sapiens, NHEM, 72 h",1.47 µM
COc1c(O)ccc2c1OCC(c1ccc(O)c(OC)c1OC)=C2 [LESPEFLORIN E1],Activity,[1],Non-toxic
same,IC50,"[2]; Homo sapiens, NHEM, 72 h",4.29 µM
COc1c(O)ccc(-c2cc3ccc(O)c(OC)c3o2)c1OC [LESPEFLORIN F1],Activity,[1],Non-toxic
same,IC50,"[2]; Homo sapiens, NHEM, 72 h",10.8 µM
COc1cc2c(CO)c(-c3ccc(O)cc3O)oc2c(CC=C(C)C)c1O [LESPEFLORIN F2],Activity,[1],Non-toxic
same,IC50,"[2]; Homo sapiens, NHEM, 72 h",8.27 µM
COc1cc2c(cc1O)O[C@H]1c3ccc(O)c(CC=C(C)C)c3OC[C@@H]21 [LESPEFLORIN G1],Activity,[1],Non-toxic
same,IC50,"[2]; Homo sapiens, NHEM, 72 h",3.73 µM
COc1c(O)cc2c(c1CC=C(C)C)O[C@H]1c3cc(CC=C(C)C)c(O)cc3OC[C@@H]21 [LESPEFLORIN G2],Activity,[1],Non-toxic
same,IC50,"[2]; Homo sapiens, NHEM, 72 h",2.07 µM
COc1c(O)cc2c(c1CC=C(C)C)O[C@H]1c3c(cc(O)c(CC=C(C)C)c3OC)OC[C@@H]21 [LESPEFLORIN G3],Activity,[1],Non-toxic
same,IC50,"[2]; Homo sapiens, NHEM, 72 h",2.03 µM
CC(C)=CCc1cc2c(cc1O)OC[C@H]1c3cc(C)c(O)c(CC=C(C)C)c3O[C@@H]21 [LESPEFLORIN G4],Activity,[1],Non-toxic
same,IC50,"[2]; Homo sapiens, NHEM, 72 h",3.24 µM
CC(C)=CCc1c(O)c(C)cc2c1O[C@H]1c3ccc(O)c(CC=C(C)C)c3OC[C@@H]21 [LESPEFLORIN G5],Activity,[1],Non-toxic
same,IC50,"[2]; Homo sapiens, NHEM, 72 h",1.52 µM
COc1c(C)cc2c(c1CC=C(C)C)O[C@H]1c3ccc(O)cc3OC[C@@H]21 [LESPEFLORIN G6],Activity,[1],Non-toxic
same,IC50,"[2]; Homo sapiens, NHEM, 72 h",6.16 µM
COc1cc2c(c(CC=C(C)C)c1O)O[C@H]1c3ccc(O)cc3OC[C@@H]21 [LESPEFLORIN G7],Activity,[1],Non-toxic
same,IC50,"[2]; Homo sapiens, NHEM, 72 h",6.02 µM
COc1ccc2c(c1)OC[C@H]1c3cc(O)c(OC)c(CC=C(C)C)c3O[C@@H]21 [LESPEFLORIN G8],Activity,[1],Non-toxic
same,IC50,"[2]; Homo sapiens, NHEM, 72 h",1.63 µM
COc1ccc2c(c1)OC[C@H]1c3cc(OC)c(O)c(CC=C(C)C)c3O[C@@H]21 [LESPEFLORIN G9],Activity,[1],Non-toxic
same,IC50,"[2]; Homo sapiens, NHEM, 72 h",8.38 µM
CC(C)=CCc1c(O)c(C)cc2c1O[C@H]1c3ccc(O)cc3OC[C@@H]21 [LESPEFLORIN G10],Activity,[1],Non-toxic
same,IC50,"[2]; Homo sapiens, NHEM, 72 h",1.44 µM
CC(C)=CCc1cc2c(cc1O)OC[C@H]1c3cc(O)c4c(c3O[C@@H]21)C=CC(C)(C)O4 [LESPEFLORIN G11],Activity,[1],Non-toxic
same,IC50,"[2]; Homo sapiens, NHEM, 72 h",2.9 µM
COc1ccc2c(c1)OC[C@H]1c3cc(O)c4c(c3O[C@@H]21)C=CC(C)(C)O4 [LESPEFLORIN G12],Activity,[1],Non-toxic
same,IC50,"[2]; Homo sapiens, NHEM, 72 h",8.34 µM
COc1ccc2c(c1)OCc1c-2oc2c(CC=C(C)C)c(O)c(O)cc12 [LESPEFLORIN H1],Activity,[1],Non-toxic
same,IC50,"[2]; Homo sapiens, NHEM, 72 h",27 µM
COc1ccc2c(c1)OCc1c-2oc2c3c(c(O)cc12)OC(C)(C)C=C3 [LESPEFLORIN H2],Activity,[1],Non-toxic
same,IC50,"[2]; Homo sapiens, NHEM, 72 h",1.48 µM
CC(C)=CCc1cc2c(cc1O)oc(=O)c1c3cc(O)c(O)cc3oc21 [LESPEFLORIN I1],Activity,[1],Non-toxic
same,IC50,"[2]; Homo sapiens, NHEM, 72 h",3.21 µM
CC(C)=CCc1cc2c(cc1O)oc(=O)c1c3cc(O)c(O)c(CC=C(C)C)c3oc21 [LESPEFLORIN I2],Activity,[1],Non-toxic
same,IC50,"[2]; Homo sapiens, NHEM, 72 h",28.3 µM
COc1ccc2c(c1)oc(=O)c1c3cc(O)c(O)c(CC=C(C)C)c3oc21 [LESPEFLORIN I3],Activity,[1],Non-toxic
same,IC50,"[2]; Homo sapiens, NHEM, 72 h",27.3 µM
CC(C)=CCc1cc(-c2oc3c(CC=C(C)C)c(O)c(O)cc3c2C(=O)c2cc3c(c(CC=C(C)C)c2O)O[C@H]2c4ccc(O)c(CC=C(C)C)c4OC[C@@H]32)c(O)cc1O [LESPEFLORIN J1],Activity,[1],Non-toxic
same,IC50,"[2]; Homo sapiens, NHEM, 72 h",39.6 µM
COc1ccc(-c2oc3c(CC=C(C)C)c(O)c(O)cc3c2C(=O)c2cc3c(c(CC=C(C)C)c2O)O[C@H]2c4ccc(O)c(CC=C(C)C)c4OC[C@@H]32)c(O)c1 [LESPEFLORIN J2],Activity,[1],Non-toxic
same,IC50,"[2]; Homo sapiens, NHEM, 72 h",> 52.8 µM
CC(C)=CCc1cc(-c2oc3c(CC=C(C)C)c(O)c(O)cc3c2C(=O)c2cc3c(c(CC=C(C)C)c2O)O[C@H]2c4cc(CC=C(C)C)c(O)cc4OC[C@@H]32)c(O)cc1O [LESPEFLORIN J3],Activity,[1],Non-toxic
same,IC50,"[2]; Homo sapiens, NHEM, 72 h",37.7 µM
COc1ccc(-c2oc3c(CC=C(C)C)c(O)c(O)cc3c2C(=O)c2cc3c(c(CC=C(C)C)c2O)O[C@H]2c4cc(CC=C(C)C)c(O)cc4OC[C@@H]32)c(O)c1 [LESPEFLORIN J4],Activity,[1],Non-toxic
same,IC50,"[2]; Homo sapiens, NHEM, 72 h",> 52.8 µM
CC(C)=CCc1cc([C@@H]2CC(=O)c3c(cc(O)c(CC=C(C)C)c3O)O2)ccc1O [MACARANGAFLAVANONE B],Activity,[1],Non-toxic
same,IC50,"[2]; Homo sapiens, NHEM, 72 h",2.59 µM
CC(C)=CCc1cc([C@@H]2CC(=O)c3cc(CC=C(C)C)c(O)c(CC=C(C)C)c3O2)ccc1O [PROSTRATOL],Activity,[1],Non-toxic
same,IC50,"[2]; Homo sapiens, NHEM, 72 h",0.98 µM
